Assay results from patent US8470813B2, “Thiazoline and oxazoline derivatives and their methods of use” (AbbVie Inc., priority 2006, dated 2013).
pEC50: −log10 of the molar value.

Experiments:
α7 nAChRs [1] = target: T1, α7 nAChRs (Homo sapiens, UniProt P36544); assay: High-throughput calcium flux (FLIPR) assay using IMR-32 cells expressing endogenous α7 nAChRs; type: cell-based
T1 construct: IMR-32 cells endogenous expressing α7 nAChRs; host or cells: IMR-32 neuroblastoma cells
Excerpt: (i) High-Throughput Calcium Flux Assays Using Cells Expressing Endogenous α7 nAChRs
As such, positive allosteric modulators can be identified or nicotinic acetylcholine receptor agonists can be identified by using IMR-32 cells that endogenously express various nicotinic receptors including α7 nAChRs. […] Accordingly, allosteric modulator compounds described herein can be identified using fluorescence-based throughput functional assay using cell lines such as IMR-32 neuroblastoma or primary dissociated neurons. Although cell types such as IMR-32 neuroblastoma and neurons are known to contain several nicotinic receptor subunits, α7 selective agonists in the present assay selectively stimulate calcium responses only in the presence of positive allosteric modulators. Any suitable selective α7 agonist can be used.
IMR-32 neuroblastoma cells (ATCC) were grown to confluency in 162 cm^2 tissue culture flasks in minimum essential media supplemented with 10% FBS and 1 mM sodium pyruvate, 0.1 mM non-essential amino acids and 1% antibiotic-antimycotic. The cells were then dissociated using cell dissociation buffer and 40 μl of 3.5×10^5 cells/ml cell suspension was plated (15,000 cells/well) into black plates with clear bottom and maintained for 48 hours in a tissue culture incubator at 37° C. under an atmosphere of 5% CO2: 95% air. […] Calcium flux was measured using calcium-3 assay kit (Molecular Devices, Sunnyvale, Calif.) or fluo-4. A stock solution of the dye was prepared by dissolving each vial supplied by the vendor in Hank's balanced salt solution buffer (HBSS) containing 20 mM HEPES. The stock solution was diluted 1:20 using the same buffer before use. The growth media was removed from the cells and loaded with 45 μl of the dye and incubated at room temperature for three hours. Fluorescence measurements were read simultaneously from all the wells by a Fluorometic Imaging Plate Reader (FLIPR) at an excitation wavelength of 480 nm and an emission wavelength of 520 nm. Baseline fluorescence was measured for the first 10 seconds at which 5× concentrations of modulator/test compounds were added to the cell plate and incubated for three minutes. The fluorescence intensity was captured every second for the first 1 minute followed by every 5 seconds for an additional 2 minutes. This procedure was followed by 20 μl of 4× concentration of agonist and readings were taken for a period of three minutes as described above.

α7 nAChRs [2] = target: T2, α7 nAChRs (Rattus norvegicus, UniProt Q05941); assay: High-throughput phospho-ERK assay (in-cell western) using PC-12 cells expressing endogenous α7 nAChRs; type: cell-based; settings: in presence of selective α7 agonist, FIG. 4
T2 construct: cells expressing endogenous α7 nAChRs without the need for overexpressing recombinant receptors; host or cells: PC-12 rat pheochromocytoma cells
T2 sequence (Q05941 23-502): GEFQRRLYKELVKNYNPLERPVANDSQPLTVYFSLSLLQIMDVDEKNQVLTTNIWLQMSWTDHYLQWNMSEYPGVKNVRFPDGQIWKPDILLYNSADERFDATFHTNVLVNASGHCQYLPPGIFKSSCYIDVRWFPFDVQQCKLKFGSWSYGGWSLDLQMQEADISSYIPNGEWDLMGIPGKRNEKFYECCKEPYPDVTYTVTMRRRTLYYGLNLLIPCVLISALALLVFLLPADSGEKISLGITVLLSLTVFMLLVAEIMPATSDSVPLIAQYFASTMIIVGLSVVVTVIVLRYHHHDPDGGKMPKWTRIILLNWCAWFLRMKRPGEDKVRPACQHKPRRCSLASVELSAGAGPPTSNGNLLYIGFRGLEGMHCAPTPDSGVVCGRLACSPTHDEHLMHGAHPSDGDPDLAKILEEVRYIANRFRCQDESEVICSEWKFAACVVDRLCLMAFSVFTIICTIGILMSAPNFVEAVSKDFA
Procedure: To determine the effectiveness of compounds of formula (I) or (II), as allosteric modulators, the compounds of the invention were evaluated according to two high-throughput functional assays using (i) IMR-32 cells endogenous expressing α7 nAChRs and measuring Ca^2+ flux or membrane potential changes utilizing the fluorescence-imaging plate reader (FLIPR)-based assays and (ii) measurement of phospho-ERK activity using western blot assays. These assays allow for higher throughput screening of positive allosteric modulators using cells or cell lines expressing endogenous α7 nAChRs.
(ii) High-Throughput Phospho-Erk Assays Using Cells Expressing Endogenous α7 nAChRs
Rat pheochromocytoma (PC-12) cells (ATCC, Manassas, Va.) were cultured and maintained in F-12K media supplemented with 15% horse serum, 2.5% fetal calf serum, and 2 mM L-Glutamine in poly-D lysine coated dishes at 37° C. and 5% CO2. […]
PC-12 cells are treated for 10 minutes at 37° C. with test positive allosteric modulator compounds and then challenged with a selective α7 agonist for 5 minutes at 37° C. in a final volume of 100 μl/well, unless otherwise indicated. […] Well intensities were quantitated and phospho-ERK signals were normalized to total ERK signals by the Odyssey software. […]

T1 sequence (P36544 23-502): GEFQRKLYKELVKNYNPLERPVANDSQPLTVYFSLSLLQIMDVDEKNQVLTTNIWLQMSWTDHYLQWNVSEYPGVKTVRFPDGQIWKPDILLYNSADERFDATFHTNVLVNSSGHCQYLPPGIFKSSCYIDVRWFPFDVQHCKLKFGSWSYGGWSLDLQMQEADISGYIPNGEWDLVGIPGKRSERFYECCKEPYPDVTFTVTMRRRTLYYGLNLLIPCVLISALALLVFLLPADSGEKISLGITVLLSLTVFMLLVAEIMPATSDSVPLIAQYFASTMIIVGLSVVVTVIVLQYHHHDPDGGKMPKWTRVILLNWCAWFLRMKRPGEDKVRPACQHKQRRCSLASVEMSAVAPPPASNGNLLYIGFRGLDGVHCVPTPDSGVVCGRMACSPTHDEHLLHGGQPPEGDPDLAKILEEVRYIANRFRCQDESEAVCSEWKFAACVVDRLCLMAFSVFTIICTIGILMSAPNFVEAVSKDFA

c1ccc(-c2nnc(N3CCN4CCC3CC4)o2)cc1 [4-(5-Phenyl-[1,3,4]oxadiazol-2-yl)-1,4-diaza-bicyclo[3.2.2]nonane, reference compound]
calcium response, agonist alone (α7 nAChRs [1]; IMR-32 cells, absence of allosteric modulator, FIG. 3): did not trigger calcium responses

CCN1C[C@]2(COC(=O)c3ccccc3N3C(=O)C[C@H](C)C3=O)CC[C@H](OC)[C@@]34[C@@H]5C[C@H]6[C@H](OC)[C@@H]5[C@](O)(C[C@@H]6OC)[C@@](O)([C@@H](OC)[C@H]23)[C@@H]14 [methyllycaconitine, reference compound]
effect of α7 selective antagonist on agonist plus modulator calcium response (α7 nAChRs [1]; IMR-32 cells): abolishes response

Cc1cn(-c2ccc3c(c2)OC(F)(F)O3)/c(=N/C(=O)N(C)C)s1 [Example 9, N′-[(2Z)-3-(2,2-difluoro-1,3-benzodioxol-5-yl)-5-methyl-1,3-thiazol-2(3H)-ylidene]-N,N-dimethylurea]
calcium fluorescence response, modulator co-applied with agonist (α7 nAChRs [1]; IMR-32 cells, Example 9 10 μM with agonist 4-(5-phenyl-[1,3,4]oxadiazol-2-yl)-1,4-diaza-bicyclo[3.2.2]nonane, FIG. 1): evoked calcium fluorescence response | calcium response, modulator alone (α7 nAChRs [1]; IMR-32 cells, absence of α7 nAChR agonist, FIG. 2): did not trigger calcium responses | pEC50 (α7 nAChRs [1]; IMR-32 neuroblastoma cells, in presence of agonist 4-(5-phenyl-[1,3,4]oxadiazol-2-yl)-1,4-diaza-bicyclo[3.2.2]nonane, FIG. 2, read-out: EC50 value of the modulator (calcium fluorescence response)): 5.52 | ERK phosphorylation, concentration-response (α7 nAChRs [2]): evoke concentration-dependent increases in ERK phosphorylation
